Patent US6358973B1, “Benzazine derivatives as phosphodiesterase 4 inhibitors” (Zambon Group S.p.A., priority 1998, dated 2002)

Tested on: not given
Test: not given
Conditions: not given

Row | SMILES | melting point
1 | COc1ccc2c(c1)C(CC1CCCC1)CN=C2Cc1c(Cl)cncc1Cl.Cl.Cl (stereo not drawn) | 162 to 164 °C (dec.)
2 | COc1cccc2c1C(Cc1c(Cl)cncc1Cl)=NCC2CC1CCCC1.Cl.Cl (stereo not drawn) | 189 to 190 °C (dec.)
3 | COc1cccc2c1C(Cc1c(Cl)cncc1Cl)=NCC2CCCCCCc1ccccc1.Cl.Cl (stereo not drawn) | 117 to 119 °C (dec.)

Continued, values first:

Row | melting point | SMILES
4 | 135 to 137 °C (dec.) | COc1ccc2c(c1)C(CCCCCCc1ccccc1)CN=C2Cc1c(Cl)cncc1Cl.Cl.Cl (stereo not drawn)
5 | 191 to 192 °C | COc1ccc2c(c1)c(-c1ccccc1)cc(=O)n2Cc1c(Cl)cncc1Cl [Compound 23, 1-(3,5-Dichloropyridin-4-ylmethyl)-6-methoxy-4-phenyl-1H-quinolin-2-one]

Target: PDE 4 enzyme
Test: PDE 4 enzyme inhibition (SPA, Amersham kit)
Format: biochemical
Conditions: PDE 4 purified from human PMNs; cAMP 1 μM; 40 minutes at 30° C.; 9 concentrations
Excerpt: Evaluation of the PDE 4 Enzyme Inhibition a) Purification of Human Polymorphonucleate Leukocytes
The polymorphonucleate leukocytes (PMNs) were isolated from peripheral blood of healthy volunteers according to what described by Boyum A., Scand. J. Immunol., 1976, 5th suppl., 9). Shortly, the isolation of the PMNs was effected by Ficoll-Paque gradient centrifugation followed by sedimentation on dextrane and the erythrocyte contamination was eliminated by hypotonic lysis. […]
b) PDE 4 Enzyme Purification
The human PMNs were re-suspended in TRIS/HCl buffer (10 mM pH 7.8) containing MgCl2 (5 mM), EGTA (4 mM), mercaptoethanol (5 mM), TRITON-X100 (1%), pepstatin A (1 μM), PMSF (100 μM) and leupeptin (1 μM), and homogenised by Polytron. […]
The enzyme activity was evaluated with an Amersham kit based on the SPA (Scintillation Proximity Assay) technique. […] The radioactivity due to the particles was measured in a β-emitting counter. The results are expressed as percent activity versus the control present in each experiment. The IC50 values were calculated over 9 concentrations equidistant in logarithmic scale using a 4-parameters logistic function by software.

Row | IC50 [µM] | SMILES
6 | 0.0359 ± 0.0047 | COc1ccc2c(c1CC1CCCC1)CCN=C2Cc1c(Cl)cncc1Cl [Compound 20, 5-Cyclopentylmethyl-1-(3,5-dichloro-pyridin-4-ylmethyl)-6-methoxy-3,4-dihydro-isoquinoline]
